{"source": "paper PMC7181660", "about": "“A novel specific PERK activator reduces toxicity and extends survival in Huntington's disease models” (Scientific Reports, 2020)", "key": {"[1]": {"tested_on": "PERK-P", "assay": "PERK phosphorylation shift by immunoblot in MEF cells", "format": "cell-based", "settings": "3 hours, Thap 2 μg/ml"}, "[2]": {"target": "panel of 391 kinases (Homo sapiens, UniProt P42685)", "sequence (P42685 whole entry)": "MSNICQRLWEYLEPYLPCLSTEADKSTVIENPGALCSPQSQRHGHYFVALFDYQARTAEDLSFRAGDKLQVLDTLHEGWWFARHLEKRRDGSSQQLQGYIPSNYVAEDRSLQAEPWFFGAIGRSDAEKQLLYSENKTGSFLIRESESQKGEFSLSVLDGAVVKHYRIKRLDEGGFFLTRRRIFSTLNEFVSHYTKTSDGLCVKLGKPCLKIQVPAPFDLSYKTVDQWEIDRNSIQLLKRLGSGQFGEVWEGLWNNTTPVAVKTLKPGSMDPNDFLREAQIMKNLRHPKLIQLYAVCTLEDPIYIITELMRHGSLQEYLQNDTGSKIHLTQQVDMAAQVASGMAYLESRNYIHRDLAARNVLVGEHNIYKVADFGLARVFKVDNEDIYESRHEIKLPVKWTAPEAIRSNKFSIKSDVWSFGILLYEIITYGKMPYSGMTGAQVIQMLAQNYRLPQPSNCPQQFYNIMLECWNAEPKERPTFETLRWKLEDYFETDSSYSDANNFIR", "assay": "biochemical", "format": "biochemical", "settings": "FRK/PTK5, MK-28 1 µM, ATP 1 µM"}, "[3]": {"target": "panel of 391 kinases (Homo sapiens, UniProt O15264)", "sequence (O15264 whole entry)": "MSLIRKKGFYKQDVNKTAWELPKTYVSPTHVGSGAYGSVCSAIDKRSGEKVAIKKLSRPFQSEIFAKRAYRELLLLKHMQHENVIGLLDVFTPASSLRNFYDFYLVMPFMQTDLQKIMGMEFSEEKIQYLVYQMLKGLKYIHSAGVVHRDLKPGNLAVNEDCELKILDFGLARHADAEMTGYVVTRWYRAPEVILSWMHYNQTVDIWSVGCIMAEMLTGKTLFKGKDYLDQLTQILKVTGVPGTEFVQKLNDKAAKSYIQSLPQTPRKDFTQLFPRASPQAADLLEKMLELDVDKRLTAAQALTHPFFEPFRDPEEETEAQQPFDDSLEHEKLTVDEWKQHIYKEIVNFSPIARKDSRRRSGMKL", "assay": "biochemical", "format": "biochemical", "settings": "P38d/MAPK13, MK-28 1 µM, ATP 1 µM"}, "[4]": {"target": "panel of 391 kinases (Homo sapiens, UniProt O43318)", "sequence (O43318 whole entry)": "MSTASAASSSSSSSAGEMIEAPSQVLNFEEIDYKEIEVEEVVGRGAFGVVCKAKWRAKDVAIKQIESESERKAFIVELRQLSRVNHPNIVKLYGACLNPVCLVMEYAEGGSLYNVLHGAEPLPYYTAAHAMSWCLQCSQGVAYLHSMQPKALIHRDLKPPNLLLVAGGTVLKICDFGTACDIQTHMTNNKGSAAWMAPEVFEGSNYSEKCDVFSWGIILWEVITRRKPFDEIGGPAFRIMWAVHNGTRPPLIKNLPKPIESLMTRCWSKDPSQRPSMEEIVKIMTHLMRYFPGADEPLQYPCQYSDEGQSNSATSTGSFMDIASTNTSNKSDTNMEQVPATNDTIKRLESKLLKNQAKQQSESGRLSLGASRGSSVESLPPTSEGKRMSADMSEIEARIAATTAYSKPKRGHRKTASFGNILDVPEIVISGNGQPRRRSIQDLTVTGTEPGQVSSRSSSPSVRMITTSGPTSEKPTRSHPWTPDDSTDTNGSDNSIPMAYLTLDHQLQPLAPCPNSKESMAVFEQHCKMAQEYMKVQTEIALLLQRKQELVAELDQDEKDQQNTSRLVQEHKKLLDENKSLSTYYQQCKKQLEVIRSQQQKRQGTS", "assay": "biochemical", "format": "biochemical", "settings": "TAK1, MK-28 1 µM, ATP 1 µM"}, "[5]": {"target": "panel of 391 kinases (Homo sapiens, UniProt P00533)", "sequence (P00533 25-1210)": "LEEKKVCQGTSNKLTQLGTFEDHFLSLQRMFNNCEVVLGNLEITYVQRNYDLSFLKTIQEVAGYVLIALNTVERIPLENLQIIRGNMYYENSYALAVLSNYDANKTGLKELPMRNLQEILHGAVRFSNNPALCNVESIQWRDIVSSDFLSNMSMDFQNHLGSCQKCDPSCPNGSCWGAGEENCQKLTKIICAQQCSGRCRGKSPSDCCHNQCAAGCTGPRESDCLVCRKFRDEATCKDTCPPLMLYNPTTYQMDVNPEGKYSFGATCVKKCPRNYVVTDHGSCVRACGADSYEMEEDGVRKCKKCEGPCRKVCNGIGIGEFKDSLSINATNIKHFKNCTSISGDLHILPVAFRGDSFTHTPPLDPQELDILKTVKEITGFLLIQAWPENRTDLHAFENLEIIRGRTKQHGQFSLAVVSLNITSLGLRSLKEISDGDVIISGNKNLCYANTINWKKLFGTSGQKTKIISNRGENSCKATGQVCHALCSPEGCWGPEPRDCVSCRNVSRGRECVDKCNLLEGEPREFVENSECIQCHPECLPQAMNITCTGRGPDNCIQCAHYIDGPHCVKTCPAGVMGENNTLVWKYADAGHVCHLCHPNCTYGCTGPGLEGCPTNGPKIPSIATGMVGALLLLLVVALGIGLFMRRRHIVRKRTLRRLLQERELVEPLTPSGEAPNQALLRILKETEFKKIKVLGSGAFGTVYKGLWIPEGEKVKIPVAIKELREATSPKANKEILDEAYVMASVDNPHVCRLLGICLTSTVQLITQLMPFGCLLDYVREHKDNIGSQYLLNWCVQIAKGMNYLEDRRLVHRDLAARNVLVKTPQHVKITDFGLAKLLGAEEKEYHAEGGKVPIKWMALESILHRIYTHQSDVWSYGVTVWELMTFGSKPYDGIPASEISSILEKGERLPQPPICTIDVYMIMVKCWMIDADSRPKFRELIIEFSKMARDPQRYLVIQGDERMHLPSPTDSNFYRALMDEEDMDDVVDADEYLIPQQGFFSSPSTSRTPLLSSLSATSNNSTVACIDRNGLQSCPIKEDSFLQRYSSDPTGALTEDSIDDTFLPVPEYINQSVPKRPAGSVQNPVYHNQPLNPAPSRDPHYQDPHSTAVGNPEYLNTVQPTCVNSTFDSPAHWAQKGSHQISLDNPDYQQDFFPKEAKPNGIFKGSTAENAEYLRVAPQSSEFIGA", "assay": "biochemical", "format": "biochemical", "settings": "EGFR, MK-28 1 µM, ATP 1 µM"}, "[6]": {"target": "panel of 391 kinases (Homo sapiens, UniProt Q9UHD2)", "sequence (Q9UHD2 whole entry)": "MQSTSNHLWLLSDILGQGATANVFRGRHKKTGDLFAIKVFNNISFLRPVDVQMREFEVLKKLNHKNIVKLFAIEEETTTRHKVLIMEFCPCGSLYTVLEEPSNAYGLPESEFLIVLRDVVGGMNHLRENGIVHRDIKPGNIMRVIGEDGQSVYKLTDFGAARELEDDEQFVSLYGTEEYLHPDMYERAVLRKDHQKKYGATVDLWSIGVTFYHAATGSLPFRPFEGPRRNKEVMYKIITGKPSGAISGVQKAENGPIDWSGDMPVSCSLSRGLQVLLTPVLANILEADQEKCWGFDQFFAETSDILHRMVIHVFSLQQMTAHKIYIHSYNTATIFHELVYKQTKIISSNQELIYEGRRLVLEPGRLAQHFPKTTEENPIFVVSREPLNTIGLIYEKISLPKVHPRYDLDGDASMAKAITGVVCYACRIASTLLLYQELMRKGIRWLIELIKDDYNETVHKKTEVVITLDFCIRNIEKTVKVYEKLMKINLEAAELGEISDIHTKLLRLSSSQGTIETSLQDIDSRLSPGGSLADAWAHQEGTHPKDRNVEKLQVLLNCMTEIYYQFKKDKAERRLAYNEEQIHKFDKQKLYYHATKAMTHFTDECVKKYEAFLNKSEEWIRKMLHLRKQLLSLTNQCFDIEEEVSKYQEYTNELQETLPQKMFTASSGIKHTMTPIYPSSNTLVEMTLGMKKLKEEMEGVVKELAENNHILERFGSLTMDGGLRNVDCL", "assay": "biochemical", "format": "biochemical", "settings": "TBK1, MK-28 1 µM, ATP 1 µM"}, "[7]": {"target": "panel of 391 kinases (Homo sapiens, UniProt P27361)", "sequence (P27361 whole entry)": "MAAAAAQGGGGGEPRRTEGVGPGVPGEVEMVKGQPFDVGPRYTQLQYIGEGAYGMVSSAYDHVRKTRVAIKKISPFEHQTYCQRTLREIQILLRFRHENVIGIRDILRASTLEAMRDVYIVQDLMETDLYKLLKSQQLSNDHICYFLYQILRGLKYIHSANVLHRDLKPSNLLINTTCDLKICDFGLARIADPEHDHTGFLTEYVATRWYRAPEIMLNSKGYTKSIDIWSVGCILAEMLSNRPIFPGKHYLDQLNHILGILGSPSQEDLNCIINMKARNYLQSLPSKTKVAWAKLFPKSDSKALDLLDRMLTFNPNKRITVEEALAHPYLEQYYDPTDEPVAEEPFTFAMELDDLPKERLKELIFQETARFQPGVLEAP", "assay": "biochemical", "format": "biochemical", "settings": "ERK1, MK-28 1 µM, ATP 1 µM"}, "[8]": {"tested_on": "B6 wild type mice", "assay": "Toxicity study, 2 weeks continuous subcutaneous Alzet pump delivery", "format": "in vivo", "settings": "6 mg/kg, 2 weeks continuous subcutaneous delivery", "protocol": "Alzet pumps model 1004 (Alzet, USA), with a rate of 0.11 µl/hour and 28 days effective compound delivery was used. MK-28 compound was dissolved in 1:1 DMSO/PEG400 and prepared to delivery subcutaneously 6 mg/kg MK-28 for toxicity studies (n = 8) or 1 mg/kg for therapeutic evaluation in R6/2 mice (n = 72). For toxicity studies mice receiving six times the therapeutic dose of MK-28 or vehicle were weighed every two days for two consecutive weeks. […]. Alzet pumps were implanted in 4 weeks old mice and MK-28 was administered at 1 mg/kg with continuous dosing for 28 days. […]"}, "[9]": {"target": "EIF2AK2 (PKR) (Homo sapiens, UniProt P19525)", "sequence (P19525 whole entry)": "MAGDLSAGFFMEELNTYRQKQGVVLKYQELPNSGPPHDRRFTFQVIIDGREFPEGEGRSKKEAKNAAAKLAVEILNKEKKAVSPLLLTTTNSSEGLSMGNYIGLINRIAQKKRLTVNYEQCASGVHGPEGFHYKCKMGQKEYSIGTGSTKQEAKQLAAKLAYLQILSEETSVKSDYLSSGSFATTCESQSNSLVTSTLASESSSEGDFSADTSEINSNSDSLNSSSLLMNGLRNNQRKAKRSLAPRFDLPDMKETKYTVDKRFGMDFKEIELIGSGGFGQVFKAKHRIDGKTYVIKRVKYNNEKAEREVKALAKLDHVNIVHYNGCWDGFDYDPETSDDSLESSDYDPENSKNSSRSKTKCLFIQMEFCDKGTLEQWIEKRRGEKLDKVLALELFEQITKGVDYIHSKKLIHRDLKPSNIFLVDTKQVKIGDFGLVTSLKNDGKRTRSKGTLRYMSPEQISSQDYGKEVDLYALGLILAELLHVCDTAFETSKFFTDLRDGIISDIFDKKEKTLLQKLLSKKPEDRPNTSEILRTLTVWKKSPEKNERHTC", "assay": "In vitro HotSpot kinase assay on PKR", "format": "biochemical", "protocol": "(§1) In vitro kinase assays with purified components and full kinase panel analysis was done at Reaction Biology Corp. (Malvern, PA, USA) using the HotSpot Kinase Assay. Reactions were performed for 20 min at room temp. using ^33P-ATP (Specific activity 10 μCi/μl) with 1 μM total ATP, 20 μM substrate and kinases in the nanomolar range in 20 mM Hepes (pH 7.5), 10 mM MgCl2, 1 mM EGTA, 0.02% Brij35, 0.02 mg/ml BSA, 0.1 mM Na3VO4, 2 mM DTT, 1% DMSO and other required factors depending on the assayed kinase."}, "[10]": {"target": "EIF2AK1 (HRI) (Homo sapiens, UniProt Q9BQI3)", "sequence (Q9BQI3 whole entry)": "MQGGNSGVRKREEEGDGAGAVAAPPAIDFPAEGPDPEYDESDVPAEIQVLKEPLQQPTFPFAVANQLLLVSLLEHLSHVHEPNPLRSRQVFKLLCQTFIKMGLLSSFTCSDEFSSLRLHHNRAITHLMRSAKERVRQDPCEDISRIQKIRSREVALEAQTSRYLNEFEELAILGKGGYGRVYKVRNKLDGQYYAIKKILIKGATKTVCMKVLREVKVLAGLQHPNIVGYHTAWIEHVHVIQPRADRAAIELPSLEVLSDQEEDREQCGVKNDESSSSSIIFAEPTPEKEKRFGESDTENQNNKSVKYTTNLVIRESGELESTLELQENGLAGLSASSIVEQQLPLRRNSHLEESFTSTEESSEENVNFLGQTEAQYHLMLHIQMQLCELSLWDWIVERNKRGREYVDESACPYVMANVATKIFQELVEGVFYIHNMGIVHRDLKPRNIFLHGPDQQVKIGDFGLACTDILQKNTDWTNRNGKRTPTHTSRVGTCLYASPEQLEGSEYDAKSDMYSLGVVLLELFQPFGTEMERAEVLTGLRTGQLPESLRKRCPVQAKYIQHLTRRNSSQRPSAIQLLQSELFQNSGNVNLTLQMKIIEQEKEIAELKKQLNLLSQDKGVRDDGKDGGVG", "assay": "In vitro HotSpot kinase assay on HRI", "format": "biochemical", "protocol": "as §1"}, "[11]": {"tested_on": "GADD34 mRNA", "assay": "GADD34 mRNA by qPCR in STHdh^Q7/7 and STHdh^Q111/111 cells", "format": "cell-based, murine", "settings": "both cell types, qPCR vs GAPDH", "protocol": "Total cell RNA was extracted with TRIzol reagent (Invitrogen) according to the manufacturer's instructions. Reverse transcription (RT) was performed with QuantaBio qScript cDNA synthesis kit. Real-time qPCR was carried out using a CFX Connect Real-Time PCR Detection System (BioRad) and the amplifications were done using the SYBR Green PCR Master Mix (pcrbio). Reactions were run in triplicates in three independent experiments. Housekeeping gene GAPDH was used as an internal control to normalize the variability of expression levels."}, "[12]": {"tested_on": "R6/2 HD mouse model", "assay": "Ultrasonic vocalizations", "format": "in vivo, mice", "settings": "R6/2 TG males", "protocol": "Ultrasonic vocalizations were recorded on males during the first 5 minutes of female exposure, 12 weeks after birth. Vocal emissions were monitored by an UltraSoundGate Condenser Microphone (CM 16; Avisoft Bioacoustics, Berlin, Germany) placed 16 cm above the floor of each male's cage. […]. […] Spectrograms were produced at 586 Hz of frequency resolution and 0.427 ms of time resolution. Figure plotted by MATLAB code."}, "[13]": {"tested_on": "ATF4", "assay": "ATF4 protein levels by immunoblot in STHdh^Q7/7 cells", "format": "cell-based, murine", "settings": "high MK-28 concentration", "protocol": "STHdh^Q7/7 and STHdh^Q111/111 cells were treated with different concentrations of MK-28. The concentration range was chosen in accordance to previous studies with A4. Cells were lysed with PBS containing 1% Triton X-100, 0.5% Sodium deoxycholate with protease and phosphatase inhibitors cocktails. Cocktail 2 and 3 (Sigma) were added to the lysis buffer for detection of phosphorylated proteins and lysates were incubated on ice for 30 minutes, then centrifuged at 16,000xg for 30 minutes a 4 °C. […] Immunoblotting, detection by ECL and quantitation was done as described previously."}, "[14]": {"tested_on": "R6/2 HD mouse model", "assay": "Blood glucose levels", "format": "in vivo, mice", "settings": "TG + MK-28", "protocol": "For blood glucose measurements, blood samples from all the evaluated groups (n = 34) were obtained from the tail and measured with the Accu-Check glucose monitor (Roche Diagnostics, USA). Two independent glucose measurements were performed at the same hour 3 and 12 weeks after birth corresponding to the asymptomatic and symptomatic stages respectively. Glucose levels are expressed in mg/dl."}, "[15]": {"target": "EIF2AK4 (GCN2) (Homo sapiens, UniProt Q9P2K8)", "assay": "In vitro HotSpot kinase assay on GCN2", "format": "biochemical", "settings": "plateau considered reached at 10 µM; read-out: EC50 of GCN2 activation", "protocol": "In vitro kinase assays with purified components and full kinase panel analysis was done at Reaction Biology Corp. (Malvern, PA, USA) using the HotSpot Kinase Assay. Reactions were performed for 20 min at room temp. using ^33P-ATP (Specific activity 10 μCi/μl) with 1 μM total ATP, 20 μM substrate and kinases in the nanomolar range in 20 mM Hepes (pH 7.5), 10 mM MgCl2, 1 mM EGTA, 0.02% Brij35, 0.02 mg/ml BSA, 0.1 mM Na3VO4, 2 mM DTT, 1% DMSO and other required factors depending on the assayed kinase. […]\nwas calculated from the data in Fig. 3. Note that for the calculation for GCN2, we considered […]\nSuppl. Fig. S3. Modulation of PERK by A4. A4 was tested for its effect on isolated PERK in vitro, showing a weak activating effect in the nanomolar range. (performed at Reaction Biology Corp. using the HotSpot Kinase Assay).\n(1 picture or pasted object on this page, not shown here)"}, "[16]": {"settings": "read-out: % Enzyme Activity (relative to DMSO controls)"}}, "data": [{"smiles": "CN(/N=C\\c1ccc(O)c(O)c1)c1nc(-c2ccccc2)cc(-c2ccccc2)n1", "note": "[MK-28]", "values": [{"measurement": "PERK migration shift (PERK-P)", "setting": "[1]", "value": "shift of part of the PERK population to a slower migration"}, {"measurement": "% Enzyme Activity (relative to DMSO controls)", "setting": "[2]", "value": 100.16, "unit": "%"}, {"measurement": "remaining activity at 1 µM", "setting": "[2]; [16]", "value": 101, "unit": "%"}, {"measurement": "% Enzyme Activity (relative to DMSO controls)", "setting": "[3]", "value": 103.63, "unit": "%"}, {"measurement": "remaining activity at 1 µM", "setting": "[3]; [16]", "value": 104, "unit": "%"}, {"measurement": "% Enzyme Activity (relative to DMSO controls)", "setting": "[4]", "value": 97.66, "unit": "%"}, {"measurement": "remaining activity at 1 µM", "setting": "[4]; [16]", "value": 97.9, "unit": "%"}, {"measurement": "% Enzyme Activity (relative to DMSO controls)", "setting": "[5]", "value": 102.64, "unit": "%"}, {"measurement": "remaining activity at 1 µM", "setting": "[5]; [16]", "value": 104, "unit": "%"}, {"measurement": "% Enzyme Activity (relative to DMSO controls)", "setting": "[6]", "value": 116.87, "unit": "%"}, {"measurement": "remaining activity at 1 µM", "setting": "[6]; [16]", "value": 126, "unit": "%"}, {"measurement": "% Enzyme Activity (relative to DMSO controls)", "setting": "[7]", "value": 99.70, "unit": "%"}, {"measurement": "remaining activity at 1 µM", "setting": "[7]; [16]", "value": 101, "unit": "%"}, {"measurement": "toxic effects", "setting": "[8]", "value": "No toxic effects"}, {"measurement": "effect on EIF2AK2 (PKR) activity", "setting": "[9]", "value": "little or no effect"}, {"measurement": "effect on EIF2AK1 (HRI) activity", "setting": "[10]", "value": "little or no effect"}, {"measurement": "increase of GADD34 mRNA levels", "setting": "[11]", "value": "≤ 5", "unit": "fold"}, {"measurement": "vocalizations", "setting": "[12]; 12 weeks after birth", "value": 16, "unit": "syllables in 5 min"}, {"measurement": "increase of vocalizations vs untreated TG", "setting": "[12]; p = 0.059", "value": "three-fold increase"}, {"measurement": "increase of ATF4 protein levels", "setting": "[13]", "value": "up to 2.5 fold"}, {"measurement": "glucose increase ratio between disease stages (symptomatic vs asymptomatic)", "setting": "[14]", "value": "109.60 ± 5.04", "unit": "%"}, {"measurement": "EC50", "setting": "[15]", "value": 3.5, "unit": "µM"}]}]}
